Measured values as given in ChEMBL document CHEMBL4190187, “Discovery of pyrazolopyrimidine derivatives as novel inhibitors of ataxia telangiectasia and rad3 related protein (ATR)” (Bioorg Med Chem Lett, 2017).

Legend:
[1] = target: Discoidin domain-containing receptor 2 (Homo sapiens) (UniProt Q16832); test: Inhibition of recombinant human DDR2 (467 to end residues) at 1 uM using KKSRGDYMTMQIG as substrate after 40 mins in presence of [gamma-33P]ATP by scintillation counting method
[2] = target: Serine/threonine-protein kinase tousled-like 2 (Homo sapiens) (UniProt Q86UE8); test: Inhibition of recombinant human TLK2 (387 to end residues) at 1 uM using casein as substrate after 40 mins in presence of [gamma-33P]ATP by scintillation counting method
[3] = system: Serine/threonine-protein kinase B-raf (Homo sapiens), P15056 [V600E]; test: Inhibition of recombinant human B-raf V599E mutant (416 to end residues) at 1 uM using myelin basic protein as substrate after 40 mins in presence of [gamma-33P]ATP by scintillation counting method
[4] = system: Serine/threonine-protein kinase Chk2 (Homo sapiens), O96017 [R145W]; test: Inhibition of recombinant human CHK2 R145W mutant (5 to end residues) at 1 uM using KKKVSRSGLYRSPSMPENLNRPR as substrate after 40 mins in presence of [gamma-33P]ATP by scintillation counting method
[5] = target: cAMP-dependent protein kinase catalytic subunit PRKX (Homo sapiens) (UniProt P51817); test: Inhibition of recombinant full-length human PRKX at 1 uM using RRRLSFAEPG as substrate after 40 mins in presence of [gamma-33P]ATP by scintillation counting method
[6] = target: Aurora kinase A (Homo sapiens) (UniProt O14965); test: Inhibition of recombinant full-length human Aurora-A at 1 uM using LRRASLG (kemptide) as substrate after 40 mins in presence of [gamma-33P]ATP by scintillation counting method
[7] = target: Tyrosine-protein kinase Blk (Mus musculus) (UniProt P16277); test: Inhibition of recombinant full-length mouse Blk at 1 uM using poly(Glu,Tyr) 4:1 as substrate after 40 mins in presence of [gamma-33P]ATP by scintillation counting method
[8] = target: Serine/threonine-protein kinase SIK2 (Homo sapiens) (UniProt Q9H0K1); test: Inhibition of recombinant human SIK2 (1 to 276 residues) at 1 uM using KKKVSRSGLYRSPSMPENLNRPR as substrate after 40 mins in presence of [gamma-33P]ATP by scintillation counting method
[9] = target: Vascular endothelial growth factor receptor 2 (Homo sapiens) (UniProt P35968); test: Inhibition of recombinant human KDR (790 to end residues) at 1 uM using myelin basic protein as substrate after 40 mins in presence of [gamma-33P]ATP by scintillation counting method
[10] = target: Misshapen-like kinase 1 (Homo sapiens) (UniProt Q8N4C8); test: Inhibition of recombinant human MINK (1 to 310 residues) at 1 uM using myelin basic protein as substrate after 40 mins in presence of [gamma-33P]ATP by scintillation counting method
Mus musculus = test: Oral bioavailability in mouse at 10 mg/kg; assay type: ADME, organism-based; settings: in vivo
[11] = target: Serine/threonine-protein kinase Sgk1 (Homo sapiens) (UniProt O00141); test: Inhibition of recombinant human SGK (60 to end residues) at 1 uM using GRPRTSSFAEGKK as substrate after 40 mins in presence of [gamma-33P]ATP by scintillation counting method
[12] = target: CDK3/Cyclin E (Homo sapiens) (UniProt P24864+Q00526); test: Inhibition of recombinant full-length human CDK3/Cyclin E at 1 uM using histone H1 as substrate after 40 mins in presence of [gamma-33P]ATP by scintillation counting method; assay type: protein-complex assay
[13] = target: SRSF protein kinase 2 (Homo sapiens) (UniProt P78362); test: Inhibition of recombinant human SRPK2 (46 to end residues) at 1 uM using RSRSRSRSRSRSRSR as substrate after 40 mins in presence of [gamma-33P]ATP by scintillation counting method
[14] = target: Mitogen-activated protein kinase kinase kinase 5 (Homo sapiens) (UniProt Q99683); test: Inhibition of recombinant human ASK1 (649 to 946 residues) at 1 uM using myelin basic protein as substrate after 40 mins in presence of [gamma-33P]ATP by scintillation counting method
[15] = system: Hepatocyte growth factor receptor (Homo sapiens), P08581 [D1246H]; test: Inhibition of recombinant human Met D1246H mutant (974 to end residues) at 1 uM using KKKGQEEEYVFIE as substrate after 40 mins in presence of [gamma-33P]ATP by scintillation counting method
[16] = target: Fibroblast growth factor receptor 3 (Homo sapiens) (UniProt P22607); test: Inhibition of recombinant human FGFR3 (447 to 761 residues) at 1 uM using poly(Glu,Tyr) 4:1 as substrate after 40 mins in presence of [gamma-33P]ATP by scintillation counting method
[17] = target: MAP/microtubule affinity-regulating kinase 3 (Homo sapiens) (UniProt P27448); test: Inhibition of recombinant full-length human MARK3 at 1 uM using KKKVSRSGLYRSPSMPENLNRPR as substrate after 40 mins in presence of [gamma-33P]ATP by scintillation counting method
[18] = target: PI3K p110 delta/p85 alpha (Mus musculus) (UniProt P26450+O35904); test: Inhibition of recombinant full-length mouse p110d/p85a at 1 uM using phosphatidylinositol 4,5-bisphosphate as substrate after 40 mins in presence of [gamma-33P]ATP by scintillation counting method; assay type: protein-complex assay
[19] = target: Serine/threonine-protein kinase VRK2 (Homo sapiens) (UniProt Q86Y07); test: Inhibition of recombinant human VRK2 (1 to 336 residues) at 1 uM using casein as substrate after 40 mins in presence of [gamma-33P]ATP by scintillation counting method
[20] = target: Tyrosine-protein kinase JAK3 (Homo sapiens) (UniProt P52333); test: Inhibition of recombinant human JAK3 (781 to end residues) at 1 uM using GGEEEEYFELVKKKK as substrate after 40 mins in presence of [gamma-33P]ATP by scintillation counting method
[21] = target: PI3-kinase p110-delta/p85-alpha (Homo sapiens) (UniProt P27986+O00329); test: Inhibition of recombinant full-length human p110d/p85a at 1 uM using phosphatidylinositol 4,5-bisphosphate as substrate after 40 mins in presence of [gamma-33P]ATP by scintillation counting method; assay type: protein-complex assay
[22] = target: Receptor-interacting serine/threonine-protein kinase 1 (Homo sapiens) (UniProt Q13546); test: Inhibition of recombinant human RIPK1 (8 to 322 residues) at 1 uM using myelin basic protein as substrate after 120 mins in presence of [gamma-33P]ATP by scintillation counting method
[23] = target: Calcium/calmodulin-dependent protein kinase type II subunit beta (Homo sapiens) (UniProt Q13554); test: Inhibition of recombinant human CAMK2beta (1 to 315 residues) at 1 uM using […] after 40 mins in presence of [gamma-33P]ATP by scintillation counting method

Receptor-interacting serine/threonine-protein kinase 1 (Homo sapiens), sequence (Q13546 whole entry, the tested form may be a part): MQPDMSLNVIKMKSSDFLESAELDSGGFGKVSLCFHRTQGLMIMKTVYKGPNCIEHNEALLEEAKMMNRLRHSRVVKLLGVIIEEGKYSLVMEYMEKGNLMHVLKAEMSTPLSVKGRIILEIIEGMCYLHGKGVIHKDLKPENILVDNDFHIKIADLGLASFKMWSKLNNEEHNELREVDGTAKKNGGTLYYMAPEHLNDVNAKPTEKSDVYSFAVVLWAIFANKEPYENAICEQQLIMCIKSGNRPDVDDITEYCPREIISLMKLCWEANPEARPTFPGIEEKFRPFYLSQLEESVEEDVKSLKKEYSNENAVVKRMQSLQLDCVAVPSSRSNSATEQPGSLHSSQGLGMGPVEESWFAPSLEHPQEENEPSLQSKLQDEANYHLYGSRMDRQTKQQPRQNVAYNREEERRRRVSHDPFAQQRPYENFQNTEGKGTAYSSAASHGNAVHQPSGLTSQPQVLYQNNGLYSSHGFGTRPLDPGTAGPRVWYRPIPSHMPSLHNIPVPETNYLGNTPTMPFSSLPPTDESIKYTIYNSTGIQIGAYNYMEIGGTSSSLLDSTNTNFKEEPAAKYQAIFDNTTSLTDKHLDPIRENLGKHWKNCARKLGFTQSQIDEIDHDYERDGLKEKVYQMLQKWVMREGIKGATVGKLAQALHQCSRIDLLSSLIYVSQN
Hepatocyte growth factor receptor (Homo sapiens), P08581 [D1246H], sequence (P08581 with tags, fused parts or gaps D1246H): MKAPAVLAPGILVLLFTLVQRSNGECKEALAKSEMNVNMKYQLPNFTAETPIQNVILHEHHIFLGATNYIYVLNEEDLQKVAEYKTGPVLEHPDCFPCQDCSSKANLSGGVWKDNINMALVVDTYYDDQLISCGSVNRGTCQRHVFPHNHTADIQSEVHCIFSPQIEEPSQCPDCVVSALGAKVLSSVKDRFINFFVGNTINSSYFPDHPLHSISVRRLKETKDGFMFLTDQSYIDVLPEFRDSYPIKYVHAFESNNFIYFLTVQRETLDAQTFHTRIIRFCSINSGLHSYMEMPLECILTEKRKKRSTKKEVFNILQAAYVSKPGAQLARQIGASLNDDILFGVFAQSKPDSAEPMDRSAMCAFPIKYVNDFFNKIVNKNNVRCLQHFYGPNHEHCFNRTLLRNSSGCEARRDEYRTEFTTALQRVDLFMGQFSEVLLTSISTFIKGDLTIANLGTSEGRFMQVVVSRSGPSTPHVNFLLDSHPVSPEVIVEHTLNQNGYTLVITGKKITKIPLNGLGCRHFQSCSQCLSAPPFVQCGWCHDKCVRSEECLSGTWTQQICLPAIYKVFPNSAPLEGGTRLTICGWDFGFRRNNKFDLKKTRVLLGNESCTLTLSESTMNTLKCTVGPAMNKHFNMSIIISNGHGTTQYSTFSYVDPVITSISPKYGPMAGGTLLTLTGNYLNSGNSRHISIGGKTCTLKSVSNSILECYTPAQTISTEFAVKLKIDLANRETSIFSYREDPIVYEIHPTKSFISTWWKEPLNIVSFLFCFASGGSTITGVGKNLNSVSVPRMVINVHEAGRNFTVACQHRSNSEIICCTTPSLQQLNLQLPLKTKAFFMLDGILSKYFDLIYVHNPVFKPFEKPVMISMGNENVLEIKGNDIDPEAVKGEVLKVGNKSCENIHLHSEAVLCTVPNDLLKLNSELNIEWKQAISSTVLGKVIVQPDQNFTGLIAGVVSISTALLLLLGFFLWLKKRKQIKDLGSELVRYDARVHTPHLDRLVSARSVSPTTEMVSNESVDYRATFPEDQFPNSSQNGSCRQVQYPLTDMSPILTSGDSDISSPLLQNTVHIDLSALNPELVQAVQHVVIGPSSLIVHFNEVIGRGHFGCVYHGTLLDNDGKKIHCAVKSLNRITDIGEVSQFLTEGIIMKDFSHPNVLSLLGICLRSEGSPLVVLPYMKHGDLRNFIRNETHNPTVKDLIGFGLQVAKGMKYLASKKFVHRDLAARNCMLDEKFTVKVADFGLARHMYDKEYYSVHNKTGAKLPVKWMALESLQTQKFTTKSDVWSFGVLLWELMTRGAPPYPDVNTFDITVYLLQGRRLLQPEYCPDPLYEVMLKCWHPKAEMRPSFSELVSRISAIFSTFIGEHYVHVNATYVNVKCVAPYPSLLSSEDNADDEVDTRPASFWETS
Serine/threonine-protein kinase Chk2 (Homo sapiens), O96017 [R145W], sequence (O96017 whole entry R145W): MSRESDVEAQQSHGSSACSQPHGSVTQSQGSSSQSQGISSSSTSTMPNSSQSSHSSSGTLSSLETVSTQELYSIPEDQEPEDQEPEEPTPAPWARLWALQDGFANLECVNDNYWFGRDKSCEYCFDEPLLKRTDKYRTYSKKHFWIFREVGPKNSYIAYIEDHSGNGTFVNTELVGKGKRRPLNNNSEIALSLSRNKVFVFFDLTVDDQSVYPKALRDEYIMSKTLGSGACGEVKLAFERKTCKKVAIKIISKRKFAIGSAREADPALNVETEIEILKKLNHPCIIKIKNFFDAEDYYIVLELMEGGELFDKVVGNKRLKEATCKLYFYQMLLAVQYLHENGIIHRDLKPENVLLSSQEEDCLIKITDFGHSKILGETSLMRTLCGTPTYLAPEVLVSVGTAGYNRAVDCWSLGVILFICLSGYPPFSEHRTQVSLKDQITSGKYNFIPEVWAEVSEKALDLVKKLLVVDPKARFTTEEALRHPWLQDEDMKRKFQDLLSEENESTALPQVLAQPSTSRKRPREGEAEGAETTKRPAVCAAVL
Tyrosine-protein kinase Blk (Mus musculus), sequence (P16277 whole entry, the tested form may be a part): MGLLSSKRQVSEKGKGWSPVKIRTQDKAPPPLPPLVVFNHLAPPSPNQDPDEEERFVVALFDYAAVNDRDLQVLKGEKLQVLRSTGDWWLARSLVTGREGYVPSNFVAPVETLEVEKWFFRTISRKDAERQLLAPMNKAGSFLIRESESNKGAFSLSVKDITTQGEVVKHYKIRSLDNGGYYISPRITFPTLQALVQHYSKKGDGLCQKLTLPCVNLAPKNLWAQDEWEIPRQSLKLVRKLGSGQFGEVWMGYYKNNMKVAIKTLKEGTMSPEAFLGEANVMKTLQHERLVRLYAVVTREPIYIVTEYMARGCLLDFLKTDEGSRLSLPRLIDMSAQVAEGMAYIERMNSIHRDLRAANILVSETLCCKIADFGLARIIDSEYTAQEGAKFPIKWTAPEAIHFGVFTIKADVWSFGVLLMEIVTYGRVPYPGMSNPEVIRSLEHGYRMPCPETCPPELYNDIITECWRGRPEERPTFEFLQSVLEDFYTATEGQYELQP
Vascular endothelial growth factor receptor 2 (Homo sapiens), sequence (P35968 whole entry, the tested form may be a part): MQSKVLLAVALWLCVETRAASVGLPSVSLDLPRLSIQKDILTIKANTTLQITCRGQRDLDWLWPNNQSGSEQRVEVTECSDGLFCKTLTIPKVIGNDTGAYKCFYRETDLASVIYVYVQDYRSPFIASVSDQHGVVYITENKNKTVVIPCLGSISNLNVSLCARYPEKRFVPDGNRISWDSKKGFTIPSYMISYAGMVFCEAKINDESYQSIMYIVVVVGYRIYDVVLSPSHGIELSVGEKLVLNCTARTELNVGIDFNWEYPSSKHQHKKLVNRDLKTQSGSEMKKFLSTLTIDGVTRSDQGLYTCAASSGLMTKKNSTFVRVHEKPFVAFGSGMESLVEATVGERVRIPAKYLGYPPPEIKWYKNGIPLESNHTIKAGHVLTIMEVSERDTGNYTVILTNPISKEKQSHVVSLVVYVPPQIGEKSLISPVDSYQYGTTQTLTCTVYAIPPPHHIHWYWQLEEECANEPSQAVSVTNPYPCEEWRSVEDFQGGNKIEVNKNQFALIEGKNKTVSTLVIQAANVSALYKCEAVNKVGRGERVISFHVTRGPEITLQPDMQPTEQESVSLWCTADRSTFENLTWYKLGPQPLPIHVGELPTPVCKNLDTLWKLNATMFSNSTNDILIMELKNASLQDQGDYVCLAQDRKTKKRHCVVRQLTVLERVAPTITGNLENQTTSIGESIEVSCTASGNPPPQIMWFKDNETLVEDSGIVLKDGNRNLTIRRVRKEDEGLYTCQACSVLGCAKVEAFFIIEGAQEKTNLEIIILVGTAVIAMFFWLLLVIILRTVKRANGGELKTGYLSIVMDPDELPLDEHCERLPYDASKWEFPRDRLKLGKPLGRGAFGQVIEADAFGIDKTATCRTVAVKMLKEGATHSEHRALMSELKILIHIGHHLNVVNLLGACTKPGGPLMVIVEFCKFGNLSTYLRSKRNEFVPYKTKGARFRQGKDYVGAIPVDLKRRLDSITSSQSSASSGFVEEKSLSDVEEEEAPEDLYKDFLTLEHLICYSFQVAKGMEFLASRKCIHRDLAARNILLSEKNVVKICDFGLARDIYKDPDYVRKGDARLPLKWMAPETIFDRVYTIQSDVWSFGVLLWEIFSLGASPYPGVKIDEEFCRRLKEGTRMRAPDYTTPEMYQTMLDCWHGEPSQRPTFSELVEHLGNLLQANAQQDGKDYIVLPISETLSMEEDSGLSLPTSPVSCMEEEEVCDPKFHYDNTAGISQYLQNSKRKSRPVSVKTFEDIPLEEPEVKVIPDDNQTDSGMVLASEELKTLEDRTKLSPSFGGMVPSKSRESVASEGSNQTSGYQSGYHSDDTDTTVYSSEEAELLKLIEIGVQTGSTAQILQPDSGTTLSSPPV
Serine/threonine-protein kinase Sgk1 (Homo sapiens), sequence (O00141 whole entry): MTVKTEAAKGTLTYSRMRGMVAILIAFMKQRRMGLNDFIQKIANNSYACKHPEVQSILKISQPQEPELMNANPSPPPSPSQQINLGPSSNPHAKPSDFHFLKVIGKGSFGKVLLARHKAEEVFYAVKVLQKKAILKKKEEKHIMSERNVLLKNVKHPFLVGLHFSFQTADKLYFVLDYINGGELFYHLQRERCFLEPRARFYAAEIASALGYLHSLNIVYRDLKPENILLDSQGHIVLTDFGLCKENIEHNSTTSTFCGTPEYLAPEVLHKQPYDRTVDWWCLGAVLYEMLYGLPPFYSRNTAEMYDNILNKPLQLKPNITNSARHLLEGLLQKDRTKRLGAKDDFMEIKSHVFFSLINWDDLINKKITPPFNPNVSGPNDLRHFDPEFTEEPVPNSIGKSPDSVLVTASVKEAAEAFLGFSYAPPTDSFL

Work on `CS(=O)(=O)c1ccc(-n2nc(-c3cnc4[nH]ccc4c3)c3c(N)ncnc32)cc1` yielded an inhibition [1] of 4%, an inhibition [2] of 0% and an inhibition [3] of 93%. It also gave an inhibition [4] of 4%, an inhibition [5] of -4% and an inhibition [6] of 15%. The inhibition [7] was 12%, the inhibition [8] was 21% and the inhibition [9] was 72%. For the same molecule, the inhibition [10] was -10%, the F (Mus musculus) was 2.83% and the inhibition [11] was 2%. The inhibition [12] was -6%, the inhibition [13] was 0% and the inhibition [14] was -7%. The inhibition [15] was 1%, the inhibition [16] was 5% and the inhibition [17] was 4%. The inhibition [18] was 27%, the inhibition [19] was 0% and the inhibition [20] was 4%. For the same molecule, the inhibition [21] was 42%, the inhibition [22] was 18% and the inhibition [23] was -4%.
